Data reported in patent US5648336A (University of Colorado, priority 1994, dated 1997).
Where two headings read alike, the source gives them in different places. Square brackets hold non-standard residues; d marks the D form. Ends that are not written are not given here. Peptide text beside a SMILES is read from it. * marks the point of attachment. X1 = N=C(N)NCCC[C@@H](NC(=NC1CCCCC1)NC1CCCCC1)C(=O)*; Oic = O=C(O)[C@@H]1C[C@@H]2CCCC[C@@H]2N1; dIgl = N[C@@H](C(=O)O)C1Cc2ccccc2C1; Igl = N[C@H](C(=O)O)C1Cc2ccccc2C1; Hyp = O=C(O)[C@@H]1C[C@@H](O)CN1; 2Thi = N[C@@H](Cc1cccs1)C(=O)O

What was measured:
isolated rat uterus = test system: isolated rat uterus
Text: (§1) A change of one unit of pA2 value represents an order of magnitude change in potency.
(§2) On isolated smooth muscles, agonist potency is given as percent of BK potency; antagonist potency is given as pA2, and is underlined. In blood pressure assays, the number is the dose of peptide in micrograms that causes 50% reduction in the effect of BK intraarterially administered as a bolus mixture in a 500 g male rat; Ag indicates unquantitated agonist activity; Ant indicates unquantitated antagonist activity.

guinea pig ileum = test system: guinea pig ileum
Text: as §1, §2

B1 receptors = biological target: T1, B1 receptors (Oryctolagus cuniculus, UniProt P48748); assay: B1 receptor bioassay, rabbit aorta strips contracted with des-Arg9-BK; format: cell-based; conditions: 50% reduction of sustained contraction to 10^-7 M des-Arg9-BK; read-out: Rabbit Aorta p IC50 B1 receptors (converted)
T1 construct: The thorax was opened and the thoracic aorta carefully removed; from tissue; host or cells: rabbit thoracic aorta spiral strips
T1 sequence (P48748 1-352): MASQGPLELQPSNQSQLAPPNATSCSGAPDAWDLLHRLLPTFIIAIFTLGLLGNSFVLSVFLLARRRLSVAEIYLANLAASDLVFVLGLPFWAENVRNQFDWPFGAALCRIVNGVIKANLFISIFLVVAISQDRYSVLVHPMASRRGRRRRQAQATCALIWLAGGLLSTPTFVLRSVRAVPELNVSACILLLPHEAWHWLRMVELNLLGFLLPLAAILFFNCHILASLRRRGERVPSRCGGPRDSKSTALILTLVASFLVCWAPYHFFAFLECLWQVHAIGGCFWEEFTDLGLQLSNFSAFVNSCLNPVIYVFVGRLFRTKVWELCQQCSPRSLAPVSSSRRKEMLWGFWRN
Protocol: Male New Zealand white rabbits, weight range 2-3 kg, were killed by an overdose of pentobarbital i.v. The thorax was opened and the thoracic aorta carefully removed. […] The tissues were placed under 1 gm isometric tension and allowed to equilibrate for 1H. At time 1h, a concentration-effect curve was constructed to the selective B1 agonist des-Arg^9 -BK. This was repeated at time 3 hours. […] Once the contraction was sustained, the compound to be assayed was applied to the tissue bath in a cumulative manner. The concentration of the compound which produced a 50% reduction of the sustained contraction was calculated. The negative logarithm of this concentration was calculated and expressed as the […].

[1] = guinea pig ileum, vs double ED50 dose of bradykinin

| Compound | Uterus Activity, antagonist potency given as pA2 (isolated rat uterus) | Ileum Activity, antagonist potency given as pA2 (guinea pig ileum) | also measured |
| --- | --- | --- | --- |
| N=C(N)NCCC[C@@H](N)C(=O)N[C@@H](CCCNC(=N)N)C(=O)N1CCC[C@H]1C(=O)N1C[C@H](O)C[C@H]1C(=O)NCC(=O)N[C@@H](Cc1cccs1)C(=O)N[C@@H](CO)C(=O)N[C@@H](C(=O)N[C@@H](C(=O)N[C@@H](CCCNC(=N)N)C(=O)O)C1Cc2ccccc2C1)C1CCCC1 [Compound 9, DArg-Arg-Pro-Hyp-Gly-Thi-Ser-DCpg-DIglb-Arg] | 7.4 | 7.2 | – |
| N=C(N)NCCC[C@@H](N)C(=O)N[C@@H](CCCNC(=N)N)C(=O)N1CCC[C@H]1C(=O)N1C[C@H](O)C[C@H]1C(=O)NCC(=O)N[C@H](C(=O)N[C@@H](CO)C(=O)N[C@@H](C(=O)N[C@@H](C(=O)N[C@@H](CCCNC(=N)N)C(=O)O)C1Cc2ccccc2C1)C1CCCC1)C1CCCC1 [Compound 11, DArg-Arg-Pro-Hyp-Gly-Cpg-Ser-DCpg-DIglb-Arg] | – | – | IC50 (B1 receptors): 398 nM |
| N=C(N)NCCC[C@@H](N)C(=O)N[C@@H](CCCNC(=N)N)C(=O)N1CCC[C@H]1C(=O)N1C[C@H](O)C[C@H]1C(=O)NCC(=O)N[C@H](C(=O)N[C@@H](CO)C(=O)N1Cc2ccccc2C[C@@H]1C(=O)N[C@H](C(=O)N[C@@H](CCCNC(=N)N)C(=O)O)C1Cc2ccccc2C1)C1CCCC1 [Compound 12, DArg-Arg-Pro-Hyp-Gly-Cpg-Ser-DTic-Iglb-Arg] | – | 5.1 | Uterus Activity, agonist potency given as percent of BK potency (isolated rat uterus): 10.5% |
| N=C(N)NCCC[C@@H](N)C(=O)N[C@@H](CCCNC(=N)N)C(=O)N1CCC[C@H]1C(=O)N1C[C@H](O)C[C@H]1C(=O)NCC(=O)N[C@H](C(=O)N[C@@H](CO)C(=O)N1Cc2ccccc2C[C@@H]1C(=O)N[C@@H](C(=O)N[C@@H](CCCNC(=N)N)C(=O)O)C1Cc2ccccc2C1)C1CCCC1 [Compound 13, DArg-Arg-Pro-Hyp-Gly-Cpg-Ser-DTic-DIglb-Arg] | – | 6.0 | Uterus Activity, agonist potency given as percent of BK potency (isolated rat uterus): 8.6% |
| N=C(N)NCCC[C@@H](N)C(=O)N[C@@H](CCCNC(=N)N)C(=O)N1CCC[C@H]1C(=O)N1C[C@H](O)C[C@H]1C(=O)NCC(=O)N[C@@H](Cc1ccccc1)C(=O)N[C@@H](CO)C(=O)N[C@H](C(=O)N1[C@H](C(=O)N[C@@H](CCCNC(=N)N)C(=O)O)C[C@@H]2CCCC[C@@H]21)C1Cc2ccccc2C1 [Compound 14, DArg-Arg-Pro-Hyp-Gly-Phe-Ser-Iglb-Oic-Arg] (H-[dR]RP[Hyp]GFS[Igl][Oic]R-OH) | 6.5 | 5.1 | – |
| N=C(N)NCCC[C@@H](N)C(=O)N[C@@H](CCCNC(=N)N)C(=O)N1CCC[C@H]1C(=O)N1C[C@H](O)C[C@H]1C(=O)NCC(=O)N[C@@H](Cc1ccccc1)C(=O)N[C@@H](CO)C(=O)N[C@@H](C(=O)N1[C@H](C(=O)N[C@@H](CCCNC(=N)N)C(=O)O)C[C@@H]2CCCC[C@@H]21)C1Cc2ccccc2C1 [Compound 15, DArg-Arg-Pro-Hyp-Gly-Phe-Ser-DIglb-Oic-Arg] (H-[dR]RP[Hyp]GFS[dIgl][Oic]R-OH) | 7.9 | 7.6 | IC50 (B1 receptors): 162 nM |
| N=C(N)NCCC[C@@H](N)C(=O)N[C@@H](CCCNC(=N)N)C(=O)N1CCC[C@H]1C(=O)N1C[C@H](O)C[C@H]1C(=O)NCC(=O)N[C@H](C(=O)N[C@@H](CO)C(=O)N[C@@H](C(=O)N1[C@H](C(=O)N[C@@H](CCCNC(=N)N)C(=O)O)C[C@@H]2CCCC[C@@H]21)C1Cc2ccccc2C1)C1CCCC1 [Compound 24, DArg-Arg-Pro-Hyp-Gly-Cpg-Ser-DIglb-Oic-Arg] | – | 8.1 | IC50 (B1 receptors): 427 nM |
| Cc1ccc(C[C@H](NC(=O)CNC(=O)[C@@H]2C[C@@H](O)CN2C(=O)[C@@H]2CCCN2C(=O)[C@H](CCCNC(=N)N)NC(=O)[C@H](N)CCCNC(=N)N)C(=O)N[C@@H](CO)C(=O)N[C@@H](C(=O)N2[C@H](C(=O)N[C@@H](CCCNC(=N)N)C(=O)O)C[C@@H]3CCCC[C@@H]32)C2Cc3ccccc3C2)c(C)c1 [Compound 26, DArg-Arg-Pro-Hyp-Gly-DMF-Ser-DIglb-Oic-Arg] | 7.3 | 6.6 | – |
| N=C(N)NCCC[C@@H](N)C(=O)N[C@@H](CCCNC(=N)N)C(=O)N1CCC[C@H]1C(=O)N1C[C@H](O)C[C@H]1C(=O)NCC(=O)N[C@H](C(=O)N[C@@H](CO)C(=O)N1Cc2ccccc2C[C@@H]1C(=O)N(CC(=O)N[C@@H](CCCNC(=N)N)C(=O)O)C1Cc2ccccc2C1)C1CCCC1 [Compound 29, DArg-Arg-Pro-Hyp-Gly-Cpg-Ser-DTic-Nigb-Arg] | 8.1 | 7.6 | – |
| N=C(N)NCCC[C@@H](N)C(=O)N[C@@H](CCCNC(=N)N)C(=O)N1CCC[C@H]1C(=O)N1C[C@H](O)C[C@H]1C(=O)NCC(=O)N[C@@H](C(=O)N[C@@H](CO)C(=O)N[C@@H](C(=O)N1[C@H](C(=O)N[C@@H](CCCNC(=N)N)C(=O)O)C[C@@H]2CCCC[C@@H]21)C1Cc2ccccc2C1)C1Cc2ccccc2C1 [Compound 30, DArg-Arg-Pro-Hyp-Gly-DIglb-Ser-DIglb-Oic-Arg] | – | – | IC50 (B1 receptors): > 10000 nM |
| N=C(N)NCCC[C@H](NC(=O)[C@@H]1C[C@@H]2CCCC[C@@H]2N1C(=O)[C@@H](NC(=O)[C@H](CO)NC(=O)[C@H](Cc1cccs1)NC(=O)CNC(=O)[C@@H]1C[C@@H](O)CN1C(=O)[C@@H]1CCCN1C(=O)[C@H](CCCNC(=N)N)NC(=O)[C@@H](CCCNC(=N)N)NC(=O)C12CC3CC(CC(C3)C1)C2)C1Cc2ccccc2C1)C(=O)O [Compound 54, Aca-DArg-Arg-Pro-Hyp-Gly-Thi-Ser-Iglb-Oic-Arg] | 5.8 | – | – |
| N=C(N)NCCC[C@H](NC(=O)[C@@H]1C[C@@H]2CCCC[C@@H]2N1C(=O)[C@H](NC(=O)[C@H](CO)NC(=O)[C@H](Cc1cccs1)NC(=O)CNC(=O)[C@@H]1C[C@@H](O)CN1C(=O)[C@@H]1CCCN1C(=O)[C@H](CCCNC(=N)N)NC(=O)[C@@H](CCCNC(=N)N)NC(=O)C12CC3CC(CC(C3)C1)C2)C1Cc2ccccc2C1)C(=O)O [Compound 55, Aca-DArg-Arg-Pro-Hyp-Gly-Thi-Ser-DIglb-Oic-Arg] | 9.2 | 8.4 | IC50 (B1 receptors): 269 nM |
| N=C(N)NCCC[C@H](NC(=O)[C@@H]1C[C@@H]2CCCC[C@@H]2N1C(=O)[C@H](NC(=O)[C@H](CO)NC(=O)[C@H](Cc1cccs1)NC(=O)CNC(=O)[C@@H]1C[C@@H](O)CN1C(=O)[C@@H]1CCCN1C(=O)[C@H](CCCNC(=N)N)NC(=O)[C@@H](CCCNC(=N)N)NC(=NC1CCCCC1)NC1CCCCC1)C1Cc2ccccc2C1)C(=O)O [Compound 58, Dcg-DArg-Arg-Pro-Hyp-Gly-Thi-Ser-DIglb-Oic-Arg] (X1-RP[Hyp]G[2Thi]S[dIgl][Oic]R-OH) | – | 5.4 | Uterus Activity, agonist potency given as percent of BK potency (isolated rat uterus): 3.0% |
| N=C(N)NCCC[C@H](NC(=O)[C@@H]1C[C@@H]2CCCC[C@@H]2N1C(=O)[C@H](NC(=O)[C@H](CO)NC(=O)[C@H](Cc1cccs1)NC(=O)CNC(=O)[C@@H]1C[C@@H](O)CN1C(=O)[C@@H]1CCCN1C(=O)[C@H](CCCNC(=N)N)NC(=O)[C@@H](CCCNC(=N)N)NC(=O)C1=CN2CCC1CC2)C1Cc2ccccc2C1)C(=O)O [Compound 59, Dhq-DArg-Arg-Pro-Hyp-Gly-Thi-Ser-DIglb-Oic-Arg] | 8.1 | 7.2 | – |
| DArg-Arg-Pro-Hyp-Gly-Thi-Ser-DIgl-Iglb-Arg [Compound 19] | – | – | Uterus Activity, agonist potency given as percent of BK potency (isolated rat uterus; isolated rat uterus): 9.1%; Ileum Activity, antagonist potency given as pA2 (guinea pig ileum; [1]): 6.7 |
| DArg-Arg-Pro-Hyp-Gly-Thi-Ser-Higb-Oic-Arg [Compound 125] | – | – | Uterus Activity, agonist potency given as percent of BK potency (isolated rat uterus; isolated rat uterus): 9.4%; Ileum Activity, antagonist potency given as pA2 (guinea pig ileum; [1]): 6.6 |
| RPPGFSPFR [bradykinin, Arg^1 -Pro^2 -Pro^3 -Gly^4 -Phe^5 -Ser^6 -Pro^7 -Phe^8 -Arg^9, reference compound] | – | – | pD2 value (negative logarithm of the dose causing half-maximal contraction) (isolated rat uterus; rat uterus): 7.9; pD2 value (negative logarithm of the dose causing half-maximal contraction) (guinea pig ileum; guinea pig ileum): 7.4 |
